# In paper PMC7616175 (ACS chemical neuroscience, 2018):
# Positions count from the first letter of the chain named.
# Key:
# hM1 mAChR [1] = molecular target: T1, hM1 mAChR (Homo sapiens, UniProt P11229); assay: Radioligand equilibrium binding assay
# T1 sequence (P11229 1-460): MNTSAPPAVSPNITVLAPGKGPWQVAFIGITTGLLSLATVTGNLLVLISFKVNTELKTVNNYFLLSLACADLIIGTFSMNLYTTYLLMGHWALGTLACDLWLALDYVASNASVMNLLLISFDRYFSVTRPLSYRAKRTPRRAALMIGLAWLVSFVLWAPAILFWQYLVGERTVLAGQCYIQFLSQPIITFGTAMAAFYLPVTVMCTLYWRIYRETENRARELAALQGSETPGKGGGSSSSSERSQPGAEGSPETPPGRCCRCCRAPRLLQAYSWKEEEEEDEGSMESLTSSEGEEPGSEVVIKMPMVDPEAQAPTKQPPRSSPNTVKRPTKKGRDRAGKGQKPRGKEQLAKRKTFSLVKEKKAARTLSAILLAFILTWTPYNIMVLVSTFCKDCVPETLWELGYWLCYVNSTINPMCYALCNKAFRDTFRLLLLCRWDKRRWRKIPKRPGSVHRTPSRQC
# M1 mAChR = molecular target: T2, M1 mAChR (Mus musculus, UniProt P12657); assay: IP1 accumulation assay in mouse primary cortical neurons; format: cell-based; conditions: for log τB (logarithm of the operational efficacy estimate) / τB (antilogarithm of the operational efficacy parameter): IP1 accumulation
# T2 sequence (P12657 1-460): T1 sequence (P11229 1-460) with A5V, T254S, R320K, A337G, I413V
# hM1 mAChR [2] = molecular target: T1, hM1 mAChR; assay: IP1 accumulation assay in FlpInCHO-hM1; format: cell-based; conditions: for cluster of two-point profile (change in baseline versus change in pEC50): 1 and 10 μM modulator, compared with BQCA, CHO-M1 cells; for log τB (logarithm of the operational efficacy parameter of the allosteric modulator): operational model of allosterism (eq 2); for log τB (logarithm of the operational efficacy parameter of the allosteric modulator) / log αβ (logarithm of the functional cooperativity estimate between ACh and allosteric modulator): pKB fixed to binding value; for log αβ (logarithm of the functional cooperativity estimate between ACh and allosteric modulator): operational model of allosterism
# [3] = 3H-NMS 0.5 nM, allosteric ternary complex model
# [4] = mouse cortical neurons, ACh-mediated IP1 accumulation
SMILES,log α (logarithm of the binding cooperativity between ACh and allosteric modulator) (hM1 mAChR [1]; [3]),Kb (hM1 mAChR [1]),cluster of two-point profile (change in baseline versus change in pEC50) (hM1 mAChR [2]),log τB (logarithm of the operational efficacy parameter of the allosteric modulator) (hM1 mAChR [2]),log αβ (logarithm of the functional cooperativity estimate between ACh and allosteric modulator) (hM1 mAChR [2]),other results
"COc1ccc(Cn2cc(C(=O)O)c(=O)c3ccccc32)cc1 [BQCA, reference compound]",1.26 ± 0.13,–,–,–,–,log αβ (logarithm of the functional cooperativity estimate) (M1 mAChR; [4]): 1.73 ± 0.34; pKB (negative logarithm of the functional binding affinity estimate for the allosteric modulator) (M1 mAChR; [4]): 4.69 ± 0.40; αβ (antilogarithm of the functional cooperativity parameter) (M1 mAChR; [4]): (54)
"Cn1cc(-c2ccc(COc3ccccc3-c3cc(=O)n(C4CCCCC4O)cn3)cc2)cn1 (centres unmarked) [Compound 2, 3-(2-Hydroxycyclohexyl)-6-(2-((4-(1-methyl-1H-pyrazol-4-yl)-benzyl)oxy)phenyl)pyrimidin-4(3H)-one]",1.07 ± 0.19,0.324 µM,cluster 2,0.45 ± 0.08,0.79 ± 0.38,Kb (M1 mAChR): 9.55 µM; log αβ (logarithm of the functional cooperativity estimate) (M1 mAChR; [4]): 2.12 ± 0.18; αβ (antilogarithm of the functional cooperativity parameter) (M1 mAChR; [4]): (132); log τB (logarithm of the operational efficacy estimate) (M1 mAChR; mouse cortical neurons): 0.47 ± 0.13; τB (antilogarithm of the operational efficacy parameter) (M1 mAChR; mouse cortical neurons): (2.95)
"Cc1ccc(COc2ccccc2-c2cc(=O)n(C3CCCCC3O)cn2)cn1 (centres unmarked) [Compound 9i, 3-(2-Hydroxycyclohexyl)-6-(2-((6-methylpyridin-3-yl)methoxy)-phenyl)pyrimidin-4(3H)-one]",1.30 ± 0.16,5.5 µM,–,0.37 ± 0.05,1.24 ± 0.18,Kb (M1 mAChR): 3.24 µM; log αβ (logarithm of the functional cooperativity estimate) (M1 mAChR; [4]): 0.98 ± 0.11; αβ (antilogarithm of the functional cooperativity parameter) (M1 mAChR; [4]): (9.5); log τB (logarithm of the operational efficacy estimate) (M1 mAChR; mouse cortical neurons): −0.52 ± 0.09; τB (antilogarithm of the operational efficacy parameter) (M1 mAChR; mouse cortical neurons): (0.30)
"NS(=O)(=O)c1ccc(COc2ccccc2-c2cc(=O)n(C3CCCCC3O)cn2)cc1 (centres unmarked) [Compound 9k, 4-((2-(1-(2-Hydroxycyclohexyl)-6-oxo-1,6-dihydropyrimidin-4-yl)phenoxy)methyl) benzenesulfonamide]",–,–,cluster 2,–,–,–
"CN(C)S(=O)(=O)c1ccc(COc2ccccc2-c2cc(=O)n(C3CCCCC3O)cn2)cc1 (centres unmarked) [Compound 9l, 4-((2-(1-(2-Hydroxycyclohexyl)-6-oxo-1,6-dihydropyrimidin-4-yl)phenoxy)methyl)-N,N-dimethylbenzenesulfonamide]",–,–,cluster 3,–,–,–
"O=c1cc(-c2ccccc2OCc2ccc(-c3cn[nH]c3)cc2)ncn1C1CCCCC1O (centres unmarked) [Compound 10, 6-(2-((4-(1H-Pyrazol-4-yl)benzyl)oxy)phenyl)-3-(2-hydroxycyclohexyl)pyrimidin-4(3H)-one]",–,–,cluster 2,–,–,–
"O=c1cc(-c2ccccc2OCc2ccccc2)ncn1C1CCCCC1O (centres unmarked) [Compound 13, 6-(2-(Benzyloxy)phenyl)-3-(2-hydroxycyclohexyl)pyrimidin-4(3H)-one]",1.14 ± 0.13,2.95 µM,cluster 1,0.34 ± 0.05,1.30 ± 0.14,–
"O=C(O)c1ccc(COc2ccccc2-c2cc(=O)n(C3CCCCC3O)cn2)cc1 (centres unmarked) [Compound 14a, 4-((2-(1-(2-Hydroxycyclohexyl)-6-oxo-1,6-dihydropyrimidin-4-yl)phenoxy)methyl)benzoic acid]",–,–,cluster 1,–,–,–
"NC(=O)c1ccc(COc2ccccc2-c2cc(=O)n(C3CCCCC3O)cn2)cc1 (centres unmarked) [Compound 14b, 4-((2-(1-(2-Hydroxycyclohexyl)-6-oxo-1,6-dihydropyrimidin-4-yl)phenoxy)methyl) benzamide]",1.11 ± 0.09,–,cluster 2,0.61 ± 0.06,1.14 ± 0.26,pKB (negative logarithm of the binding affinity estimate of the allosteric modulator) (hM1 mAChR [1]; [3]): 6.72 ± 0.03

# Continued, in another order:
log α (logarithm of the binding cooperativity between ACh and allosteric modulator) (hM1 mAChR [1]; [3]),Kb (hM1 mAChR [1]),cluster of two-point profile (change in baseline versus change in pEC50) (hM1 mAChR [2]),log τB (logarithm of the operational efficacy parameter of the allosteric modulator) (hM1 mAChR [2]),log αβ (logarithm of the functional cooperativity estimate between ACh and allosteric modulator) (hM1 mAChR [2]),SMILES,other results
–,–,cluster 3,–,–,"CN(C)C(=O)c1ccc(COc2ccccc2-c2cc(=O)n(C3CCCCC3O)cn2)cc1 (centres unmarked) [Compound 15a, 4-((2-(1-(2-Hydroxycyclohexyl)-6-oxo-1,6-dihydropyrimidin-4-yl)phenoxy)methyl)-N,N-dimethylbenzamide]",–
–,–,cluster 4,–,–,"CNC(=O)c1ccc(COc2ccccc2-c2cc(=O)n(C3CCCCC3O)cn2)cc1 (centres unmarked) [Compound 15b, 4-((2-(1-(2-Hydroxycyclohexyl)-6-oxo-1,6-dihydropyrimidin-4-yl)phenoxy)methyl)-N-methylbenzamide]",–
0.81 ± 0.12,16.2 µM,cluster 3,−0.09 ± 0.06,0.85 ± 0.16,"CCN(CC)C(=O)c1ccc(COc2ccccc2-c2cc(=O)n(C3CCCCC3O)cn2)cc1 (centres unmarked) [Compound 15c, N,N-Diethyl-4-((2-(1-(2-hydroxycyclohexyl)-6-oxo-1,6-dihydropyrimidin-4-yl)phenoxy)methyl)benzamide]",–
1.27 ± 0.13,0.269 µM,cluster 4,0.79 ± 0.04,1.05 ± 0.20,"CCNC(=O)c1ccc(COc2ccccc2-c2cc(=O)n(C3CCCCC3O)cn2)cc1 (centres unmarked) [Compound 15d, N-Ethyl-4-((2-(1-(2-hydroxycyclohexyl)-6-oxo-1,6-dihydropyrimidin-4-yl)phenoxy)methyl)benzamide]",–
–,–,cluster 3,–,–,"O=C(c1ccc(COc2ccccc2-c2cc(=O)n(C3CCCCC3O)cn2)cc1)N1CCCCC1 (centres unmarked) [Compound 15e, 3-(2-Hydroxycyclohexyl)-6-(2-((4-(piperidine-1-carbonyl)benzyl)-oxy)phenyl)pyrimidin-4(3H)-one]",–
